Columns and labels:
Hydrilla (HYLLI) [1] = test: Control of hydrilla: aboveground dry weight after submersed exposure (12 L tanks); format: in vivo, Hydrilla verticillata (L.f.) Royle; conditions: final aboveground dry weight, thirty-three days following submersed exposure, untreated 1.047
From the text: Apical sections (12 to 15 centimeters (cm) in length) of hydrilla (HYLLI) were planted into small pots (13.5 cm length×3.75 cm diameter) containing topsoil amended with 14-14-14 slow release Osmocote® fertilizer (˜2.5 grams (g) Osmocote per kilogram (kg) soil). Approximately 5 to 7 cm of the apical section extended above the sediment at planting, and a sand cap was placed over the potting soil (˜2 cm deep). Plants were then transferred to 12 liter (L) acrylic tanks filled with well water. Tanks were maintained in a growth room with a 14:10 hour (h) photoperiod at 26° C. (±2° C.). Plants were allowed to grow for 17 days (d) before the treatments were initiated in triple replicate. Plants were treated with Compound 1 (halauxifen-methyl) at 0, 10, 100, 1000 parts per billion (ppb) with three replicates each. Treatments were only applied once. Plants were harvested at 33 d after initial treatment. At harvest, plants were rinsed free of algae and placed in paper sacks in a drying oven for 2 d at 70° C. temperature. Mean dry weights were determined and means separated using least significant differences (Table 1).

Hydrilla (HYLLI) [2] = test: Control of hydrilla: aboveground dry weight after exposure to Compounds 1 and 2 (14 L cylinders); format: in vivo, Hydrilla verticillata (L.f.) Royle; conditions: final aboveground dry weight, SC formulation, untreated 2.48
Protocol: Apical sections of hydrilla (HYLLI) were planted in potting soil amended with Osmocote® fertilizer in small pots (13.5 cm length×3.75 cm diameter). A 2.54 cm sand layer was placed over the top of the potting soil. The pots containing hydrilla were placed into 14 L acrylic cylinders filled with well water and allowed to establish slight growth prior to treatment. Cylinders were then treated with Compound 1 (halauxifen-methyl 96 grams acid equivalent per liter (g ae/L) Suspension Concentrate (SC)) or Compound 2 (benzyl 4-amino-3-chloro-5-fluoro-6-(4-chloro-2-fluoro-3-methoxyphenyl)pyridine-2-carboxylate (125 grams active ingredient per liter (g ai/L) SC)) at 50, 100 and 200 parts per billion (ppb). All treatments were replicated 4 times. […]

[3] = tested on: Eurasian Watermilfoil (MYPSP); test: Control of Eurasian watermilfoil: aboveground dry weight after exposure to Compound 1; format: in vivo, Myriophyllum spicatum L.; conditions: thirty days following a 24-hour exposure, untreated 1.257
From the text: (§1) Apical sections (12 to 15 cm in length) of Eurasian watermilfoil (MYPSP) and curlyleaf pondweed (PTMCR) were planted into small pots (13.5 cm length×3.75 cm diameter) containing topsoil amended with 14-14-14 slow release Osmocote® fertilizer (˜2.5 g Osmocote/kg soil). Approximately 5 to 7 cm of the apical section extended above the sediment at planting, and a sand cap was placed over the potting soil (˜2 cm deep). Plants were then transferred to 12 L acrylic tanks filled with well water. Plants were allowed to grow for 7 d before the treatment was initiated in triple replicate. […] At harvest, plants were rinsed free of algae, roots and shoots were separated and placed in paper sacks in a drying oven for 4 days at 70° C. temperature, and dry weights were measured and compared to an untreated control treatment (Table 3).

[4] = tested on: Curlyleaf Pondweed (PTMCR); test: Control of curlyleaf pondweed: aboveground dry weight after exposure to Compound 1; format: in vivo, Potamogeton crispus L.; conditions: thirty days following a 24-hour exposure, untreated 0.087
From the text: as §1

Compound	Dry Weight (grams) of HYLLI (Hydrilla (HYLLI) [1]; 10 ppb)	Dry Weight (grams) of HYLLI (Hydrilla (HYLLI) [1]; 100 ppb)	Dry Weight (grams) of HYLLI (Hydrilla (HYLLI) [1]; 1000 ppb)	Dry Weight (grams) of HYLLI (Hydrilla (HYLLI) [2]; 50 ppb)	Dry Weight (grams) of HYLLI (Hydrilla (HYLLI) [2]; 100 ppb)	Dry Weight (grams) of HYLLI (Hydrilla (HYLLI) [2]; 200 ppb)	Dry Weight (grams) of MYPSP ([3]; 5 ppb)	Dry Weight (grams) of MYPSP ([3]; 10 ppb)	Dry Weight (grams) of MYPSP ([3]; 50 ppb)	Dry Weight (grams) of MYPSP ([3]; 100 ppb)	Dry Weight (grams) of PTMCR ([4]; 5 ppb)	Dry Weight (grams) of PTMCR ([4]; 10 ppb)	Dry Weight (grams) of PTMCR ([4]; 50 ppb)	Dry Weight (grams) of PTMCR ([4]; 100 ppb)
COC(=O)c1nc(-c2ccc(Cl)c(OC)c2F)cc(N)c1Cl [Compound 1, methyl 4-amino-3-chloro-6-(4-chloro-2-fluoro-3-methoxyphenyl)pyridine-2-carboxylate]	0.02 b grams	0.003 ab grams	0 b grams	0.02 b grams	0.64 ab grams	0 b grams	0.000 b grams	0.000 b grams	0.000 b grams	0.000 b grams	0.117 a grams	0.043 ab grams	0.000 b grams	0.000 b grams
COc1c(Cl)ccc(-c2nc(C(=O)OCc3ccccc3)c(Cl)c(N)c2F)c1F [Compound 2, benzyl 4-amino-3-chloro-5-fluoro-6-(4-chloro-2-fluoro-3-methoxyphenyl)pyridine-2-carboxylate]	–	–	–	0 b grams	0 b grams	0 b grams	–	–	–	–	–	–	–	–

From US20150218099A1, “METHODS FOR CONTROL OF AQUATIC WEEDS USING HERBICIDAL 4-AMINO-3-CHLORO-6-(4-CHLORO-2-FLUORO-3-METHOXYPHENYL)PYRIDINE-2-CARBOXYLIC ACIDS” (Dow AgroSciences LLC, priority 2014, published 2015)
